The values that follow come from ChEMBL document CHEMBL4419172, “Small molecule inhibitors of polynucleotide kinase/phosphatase, poly(ADP-ribose) polymerase and uses thereof” (2017).

Broadly, the inhibition is how much of the control response was suppressed.

A short description of data set [1]: Cytotoxicity against human A549 cells assessed as reduction in cell proliferation at 100 uM incubated for 72 hrs by cell-titer 96 aqueous non-radioactive cell proliferation assay. The class given is cell-based.
For the next data set, the system named is M059J. Briefly: Antiproliferative activity against human M059J cells expressing non-functional DNA dependent protein kinase assessed as reduction in cell survival at 1 to 5 uM by MTS assay. The class given is cell-based. In general terms: Formazan colour is commonly taken as a measure of viable cells.
Data set [2] deals with MDA-MB-231. Kind of data set: Radiosensitizer activity in PNKP-depleted human MDA-MB-231 cells assessed as reduction in cell survival at 1 uM pre-incubated for 2 hrs prior to gamma irradiation and further incubated for 24 hrs and measured after 14 days by crystal violet staining based by clonogenic assay relative to control. The class given is functional.
The target in data set [3] is Bifunctional polynucleotide phosphatase/kinase (Mus musculus) (UniProt Q9JLV6). Briefly: Inhibition of mouse PNKP assessed as reduction in PNKP 3'-phosphatase activity by measuring release of inorganic phosphate at 5 to 50 uM using 5'-TAMRA-tagged 20-mer oligonucleotide as substrate incubated for 30 mins by fluorescence quenching based assay.
Chain of Bifunctional polynucleotide phosphatase/kinase (Mus musculus) (Q9JLV6 whole entry): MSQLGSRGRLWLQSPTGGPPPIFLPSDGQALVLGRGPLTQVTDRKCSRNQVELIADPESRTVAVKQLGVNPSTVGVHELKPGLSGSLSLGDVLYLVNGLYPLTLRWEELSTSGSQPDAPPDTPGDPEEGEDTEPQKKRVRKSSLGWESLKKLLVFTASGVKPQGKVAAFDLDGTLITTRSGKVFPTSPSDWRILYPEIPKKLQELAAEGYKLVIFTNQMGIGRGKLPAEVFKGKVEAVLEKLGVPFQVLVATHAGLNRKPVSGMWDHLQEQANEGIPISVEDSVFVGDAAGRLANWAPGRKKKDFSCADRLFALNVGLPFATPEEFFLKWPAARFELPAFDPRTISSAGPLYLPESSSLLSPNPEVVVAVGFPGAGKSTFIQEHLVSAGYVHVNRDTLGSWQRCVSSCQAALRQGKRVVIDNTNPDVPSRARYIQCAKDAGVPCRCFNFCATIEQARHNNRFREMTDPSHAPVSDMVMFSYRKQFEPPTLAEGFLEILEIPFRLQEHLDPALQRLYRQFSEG
Data set [4] is described as follows: Cytotoxicity against human MDA-MB-231 cells assessed as reduction in cell proliferation at >100 uM incubated for 72 hrs by cell-titer 96 aqueous non-radioactive cell proliferation assay. Type of data set: cell-based.
The subject of data set [5] is A549. Kind of data set: Radiosensitizer activity in human A549 cells assessed as reduction in cell survival at 1 uM pre-incubated for 2 hrs prior to gamma irradiation and further incubated for 24 hrs and measured after 14 days by crystal violet staining based by clonogenic assay relative to control. Type of data set: functional.
The subject of data set [6] is A549. Briefly: Chemosensitizer activity in human A549 cells assessed as reduction in cell survival at 1 uM pre-incubated for 2 hrs prior to camptothecin and further incubated for 24 hrs and measured after 10 to 14 days by crystal violet staining based by clonogenic assay relative to control. The class given is functional.
For data set [7], the system named is MDA-MB-231. Kind of data set: Cytotoxicity against human MDA-MB-231 cells assessed as reduction in cell proliferation at 1 uM incubated for 72 hrs by cell-titer 96 aqueous non-radioactive cell proliferation assay. The class given is cell-based. Particulars: mda-mb-231, 72 h.
Data set [8] has as its system MDA-MB-231. Briefly: Radiosensitizer activity in human MDA-MB-231 cells assessed as reduction in cell survival at 1 uM pre-incubated for 2 hrs prior to gamma irradiation and further incubated for 24 hrs and measured after 14 days by crystal violet staining based by clonogenic assay relative to control. The class given is functional.
Data set [9] relates to A549. Briefly: Radiosensitizer activity in PNKP-depleted human A549 cells assessed as reduction in cell survival at 1 uM pre-incubated for 2 hrs prior to gamma irradiation and further incubated for 24 hrs and measured after 14 days by crystal violet staining based by clonogenic assay relative to control. Type of data set: functional.
Data set [10] in a line: Cytotoxicity against human MDA-MB-231 cells assessed as reduction in cell proliferation at 100 uM incubated for 72 hrs by cell-titer 96 aqueous non-radioactive cell proliferation assay. The class given is cell-based.
The target in another data set is Aprataxin (Homo sapiens) (UniProt Q7Z2E3). Kind of data set: Inhibition of human APTX assessed as reduction in phosphatase activity by measuring release of inorganic phosphate at 50 uM using 5'-TAMRA-tagged 20-mer oligonucleotide as substrate incubated for 30 mins by fluorescence quenching based assay.
Chain of Aprataxin (Homo sapiens) (Q7Z2E3 whole entry): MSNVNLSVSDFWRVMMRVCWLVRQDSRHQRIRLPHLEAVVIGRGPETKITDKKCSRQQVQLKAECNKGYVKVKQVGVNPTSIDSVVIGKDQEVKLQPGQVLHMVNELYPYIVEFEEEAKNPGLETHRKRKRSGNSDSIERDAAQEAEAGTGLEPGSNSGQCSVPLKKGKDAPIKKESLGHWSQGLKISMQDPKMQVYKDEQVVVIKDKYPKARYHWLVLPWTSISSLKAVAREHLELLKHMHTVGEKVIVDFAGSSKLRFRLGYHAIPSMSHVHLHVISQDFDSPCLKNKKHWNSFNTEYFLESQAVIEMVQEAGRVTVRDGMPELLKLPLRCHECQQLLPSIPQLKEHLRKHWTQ
Data set [11] is filed under the species Rattus norvegicus. Briefly: Inhibition of rat delta-calcineurin expressed in Escherichia coli assessed as reduction in phosphatase activity by measuring release of inorganic phosphate at 83.3 uM using 5'-TAMRA-tagged 20-mer oligonucleotide as substrate incubated for 30 mins by fluorescence quenching based assay.
Data set [12] addresses Serine/threonine-protein phosphatase PP1-gamma catalytic subunit (Homo sapiens) (UniProt P36873). Kind of data set: Inhibition of human PP-1cgamma expressed in Escherichia coli assessed as reduction in phosphatase activity by measuring release of inorganic phosphate at 83.3 uM using 5'-TAMRA-tagged 20-mer oligonucleotide as substrate incubated for 30 mins by fluorescence quenching based assay.

The nature of data set [13]: Cytotoxicity against human A549 cells assessed as reduction in cell proliferation at >100 uM incubated for 72 hrs by cell-titer 96 aqueous non-radioactive cell proliferation assay. Type of data set: cell-based.
Data set [14] relates to A549. Kind of data set: Cytotoxicity against human A549 cells assessed as reduction in cell proliferation at 1 uM incubated for 72 hrs by cell-titer 96 aqueous non-radioactive cell proliferation assay. The class given is cell-based. Particulars: a549, 72 h.
The subject of data set [15] is A549. Kind of data set: Antiproliferative activity against PNKP-depleted and DNA polymerase-beta dominant negative human A549 cells assessed as reduction in cell survival at 1 to 5 uM by MTS assay. Type of data set: functional, cell-based.
Data set [16] is filed under the species Rattus norvegicus. Briefly: Inhibition of rat delta-calcineurin expressed in Escherichia coli assessed as reduction in phosphatase activity by measuring release of inorganic phosphate using 5'-TAMRA-tagged 20-mer oligonucleotide as substrate incubated for 30 mins by fluorescence quenching based assay.

SMILES strings stand for the structures. Activity calls are given as the source filed them. The rule behind the calls is not given here. Starred links: 1 amine or outer side, 2 acyl side, 3 side chain; linkers in the order of their positions; H or OH if unused. Positions of bridges follow the written chain, without caps; N, C: chain ends. Non-standard residues stand in square brackets, D forms with d. Residues, ends and D or L forms follow the SMILES beside them. Adda = CO[C@@H](Cc1ccccc1)[C@@H](C)/C=C(C)/C=C/[C@H](N[*:1])[C@H](C)C(=O)[*:2]; dAsp(3S-Me) = C[C@H](C(=O)[*:3])[C@@H](N[*:1])C(=O)[*:2]; d(γGlu) = O=C(O)[C@@H](CCC(=O)[*:2])N[*:1]; NMeDha = C=C(NC)C(=O)O Bounds are passed on as bounds.

Chain of Serine/threonine-protein phosphatase PP1-gamma catalytic subunit (Homo sapiens) (P36873 2-323 limits assumed): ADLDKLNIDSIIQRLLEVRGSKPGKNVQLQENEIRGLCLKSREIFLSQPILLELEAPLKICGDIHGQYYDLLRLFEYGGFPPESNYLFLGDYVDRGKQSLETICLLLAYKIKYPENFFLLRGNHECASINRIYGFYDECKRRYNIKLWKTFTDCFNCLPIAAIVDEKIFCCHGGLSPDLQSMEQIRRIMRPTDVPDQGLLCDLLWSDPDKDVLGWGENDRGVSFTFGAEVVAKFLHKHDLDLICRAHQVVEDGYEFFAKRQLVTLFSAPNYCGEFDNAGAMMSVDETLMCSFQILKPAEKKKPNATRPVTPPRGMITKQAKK

With `CCCCCCCCCCC(O)C1C=CC2C(=O)N(c3ccccc3)C(=O)C2N1Nc1ccc([N+](=O)[O-])cc1` (stereo not drawn), the inhibition at 72 h, 100 µM in [1] and in data set [10] was not above 50% each time. Also, the outcome in the data set with M059J, in the data set on MDA-MB-231 [2] and in the data set on A549 [9] was inactive. Besides, the inhibition entry in [3] is “Active”. The inhibition at 72 h in data set [4] and in data set [13] was not above 50% each time. Further, the “fold change (FC)” value in the data set with A549 [5] was determined as 2. Further, the result with A549 [6], in the data set on MDA-MB-231 [8] and in the data set with A549 [15] was Active. In addition, the Activity result in the data set on MDA-MB-231 [7] and with A549 [14] was “Non-Toxic” throughout. The inhibition entry (on Aprataxin (Homo sapiens); in the data set listed under Rattus norvegicus [11]; in data set [12]) was “inactive” each time.
For the molecule `C=C1C(=O)N[C@H](C)C(=O)N[C@@H](CC(C)C)C(=O)N[C@@H](C(=O)O)[C@H](C)C(=O)N[C@@H](CCCNC(=N)N)C(=O)N[C@@H](/C=C/C(C)=C/[C@H](C)[C@H](Cc2ccccc2)OC)[C@H](C)C(=O)N[C@@H](C(=O)O)CCC(=O)N1C` (R[Adda][d(γGlu)][NMeDha][dA]L[dAsp(3S-Me)]-OH; lactam N-7), the inhibition entry in the data set filed under Rattus norvegicus [16] is “Active”.
